Like-named read-outs stand apart in the source and are kept apart here.
Assays:
[1] = system: MYC protein expression in MCF-7 breast cancer cells; assay: Western blotting of MYC protein level in MCF-7 cells; assay type: cell-based, human
Method: MCF-7 cells were incubated with each compound at four concentrations (0.5, 1, 2, and 4 μM) for 24 hours, and the MYC protein levels were measured (FIG. 3A and FIGS. 12 A to 12 F).
Cells were incubated at 37° C. with 5% CO2.
The gels were cut into strips that contained the proteins of interest and transferred to nitrocellulose membrane (I323002, Invitrogen) using an iBlot 2 Dry Transfer Device (Invitrogen). Immunoblotting was carried out according to standard procedures using the ECL detection method. The membrane was hybridized with the following antibodies: monoclonal anti-MYC (1:1000 dilution; rabbit, Cell Signaling Technology), monoclonal anti-GAPDH (1:2000 dilution; rabbit, Cell Signaling Technology).

[2] = system: NCI-60 cancer cell lines; assay: NCI-60 cancer cell line drug screen (GI50, MGM); assay type: cell-based, human; conditions: Homo sapiens; for GI50: read-out: Antiproliferative Activities [GI50 (μM)]
Method: Cancer cells were incubated with the test compounds at five concentrations ranging from 100 μM to 10 nM for 48 h. […] The approximate average of GI50 values across the entire panel of NCI-60 cancer cell lines for each compound was recorded as the MGM value.

In the case of O=C1c2ccccc2-c2c1c1ccccc1c(=O)n2CCCNCCO [Compound 13], the minimal effective concentration ([1]; Homo sapiens, MCF7, western blotting, MCF-7 cells, 0.5, 1, 2, and 4 μM, 24 hours, read-out: MYC Inhibition) is reported as 0.5 to 1 µM, the “MYC-inhibitory effect (MYC protein, western blot)” value ([1]; MCF-7, 0.5, 1, 2, and 4 μM, 24 h) is reported as “clear MYC-inhibitory effect” and the GI50 ([2]; 786-0, Renal Cancer, 786-0) is reported as 0.06 µM. It also gave a GI50 ([2]; A498, Renal Cancer, A498) of 0.13 µM, a GI50 ([2]; A549, Non-Small Cell Lung Cancer, A549/ATCC) of 0.06 µM and a GI50 ([2]; ACHN, Renal Cancer, ACHN) of 0.04 µM. The GI50 ([2]; BT-549, Breast Cancer, BT-549) was 0.28 µM, the GI50 ([2]; CAKI-1, Renal Cancer, CAKI-1) was 0.24 µM and the GI50 ([2]; CCRF-CEM, Leukemia, CCRF-CEM) was 0.01 µM. It also gave a GI50 ([2]; COLO 205, Colon Cancer, COLO 205) of 0.07 µM, a GI50 ([2]; DU-145, Prostate Cancer, DU-145) of 0.06 µM and a GI50 ([2]; EKVX, Non-Small Cell Lung Cancer, EKVX) of 0.43 µM. It also gave a GI50 ([2]; HCC 2998, Colon Cancer, HCC-2998) of 0.19 µM, a GI50 ([2]; HCT-15, Colon Cancer, HCT-15) of 0.15 µM and a GI50 ([2]; HCT-116, Colon Cancer, HCT-116) of 0.04 µM. It also gave a GI50 ([2]; HL-60, Leukemia, HL-60(TB)) of 0.21 µM, a GI50 ([2]; HOP-62, Non-Small Cell Lung Cancer, HOP-62) of 0.03 µM and a GI50 ([2]; HOP-92, Non-Small Cell Lung Cancer, HOP-92) of 0.15 µM. It also gave a GI50 ([2]; HT-29, Colon Cancer, HT29) of 0.12 µM, a GI50 ([2]; Hs-578T, Breast Cancer, HS 578T) of 0.66 µM and a GI50 ([2]; K562, Leukemia, K-562) of 0.18 µM. For the same molecule, the GI50 ([2]; KM12, Colon Cancer, KM12) was 0.19 µM, the GI50 ([2]; LOX IMVI, Melanoma, LOX IMVI) was 0.05 µM and the GI50 ([2]; Leukemia, SR) was less than 0.01 µM. For the same molecule, the GI50 ([2]; MCF7, Breast Cancer, MCF7) was less than 0.01 µM, the GI50 ([2]; MDA-MB-231, Breast Cancer, MDA-MB-231/ATCC) was 0.68 µM and the GI50 ([2]; MDA-MB-435, Melanoma, MDA-MB-435) was 0.39 µM. For the same molecule, the GI50 ([2]; MOLT-4, Leukemia, MOLT-4) was less than 0.01 µM, the GI50 ([2]; Malme-3M, Melanoma, MALME-3M) was 0.21 µM and the GI50 ([2]; Melanoma, M14) was 0.32 µM. It also gave a GI50 ([2]; NCI-H23, Non-Small Cell Lung Cancer, NCI-H23) of 0.21 µM, a GI50 ([2]; NCI-H226, Non-Small Cell Lung Cancer, NCI-H226) of 1.42 µM and a GI50 ([2]; NCI-H322M, Non-Small Cell Lung Cancer, NCI-H322M) of 0.34 µM. It also gave a GI50 ([2]; NCI-H460, Non-Small Cell Lung Cancer, NCI-H460) of less than 0.01 µM, a GI50 ([2]; NCI-H522, Non-Small Cell Lung Cancer, NCI-H522) of 0.02 µM and a GI50 ([2]; OVCAR-3, Ovarian Cancer, OVCAR-3) of 0.41 µM. It also gave a GI50 ([2]; OVCAR-4, Ovarian Cancer, OVCAR-4) of 0.23 µM, a GI50 ([2]; OVCAR-5, Ovarian Cancer, OVCAR-5) of 0.38 µM and a GI50 ([2]; OVCAR-8, Ovarian Cancer, OVCAR-8) of 0.07 µM. For the same molecule, the GI50 ([2]; Ovarian Cancer, NCl/ADR-RES) was 1.04 µM, the GI50 ([2]; Prostate Cancer, PC-3) was 0.28 µM and the GI50 ([2]; RPMI-8226, Leukemia, RPMI-8226) was 0.1 µM. It also gave a GI50 ([2]; RXF 393, Renal Cancer, RXF 393) of 0.96 µM, a GI50 ([2]; Renal Cancer, U0-31) of 0.1 µM and a GI50 ([2]; SF-268, CNS Cancer, SF-268) of 0.07 µM. For the same molecule, the GI50 ([2]; SF-295, CNS Cancer, SF-295) was 0.08 µM, the GI50 ([2]; SF-539, CNS Cancer, SF-539) was 0.11 µM and the GI50 ([2]; SK-MEL-2, Melanoma, SK-MEL-2) was 0.55 µM. For the same molecule, the GI50 ([2]; SK-MEL-5, Melanoma, SK-MEL-5) was 0.07 µM, the GI50 ([2]; SK-MEL-28, Melanoma, SK-MEL-28) was 1.11 µM and the GI50 ([2]; SK-OV-3, Ovarian Cancer, SK-OV-3) was 0.22 µM. The GI50 ([2]; SN12C, Renal Cancer, SN12C) was 0.16 µM, the GI50 ([2]; SNB-19, CNS Cancer, SNB-19) was 0.11 µM and the GI50 ([2]; SNB-75, CNS Cancer, SNB-75) was 0.23 µM. It also gave a GI50 ([2]; SW-620, Colon Cancer, SW-620) of 0.04 µM, a GI50 ([2]; T47D, Breast Cancer, T-47D) of 0.05 µM and a GI50 ([2]; TK-10, Renal Cancer, TK-10) of 0.41 µM. It also gave a GI50 ([2]; U-251, CNS Cancer, U251) of 0.1 µM, a GI50 ([2]; UACC-62, Melanoma, UACC-62) of 0.55 µM and a GI50 ([2]; UACC-257, Melanoma, UACC-257) of 1.18 µM. For the same molecule, the mean GI50 across NCI-60 panel (MGM) ([2]; average of GI50 values across the entire panel of NCI-60 cancer cell lines) was 140 nM.

— patent publication US20210382058A1, “PATIENT SELECTION FOR TREATMENT OF MYC POSITIVE CANCERS WITH INDENOISOQUINOLINES” (Purdue Research Foundation, priority 2020, published 2021)
